The values that follow come from patent US12618112B2, “Epigenetic moderators of naltrexone efficacy in reducing heavy drinking in individuals diagnosed with alcohol use disorder” (MUSC Foundation for Research Development, priority 2021, dated 2026).

In assay [1] the test system is individuals with Alcohol Use Disorder. The conditions noted are these: cited from earlier work.
Assay [2] deals with treatment-seeking AUD patients. The assay can be described thus: 16-week randomized, placebo-controlled naltrexone trial; percent heavy drinking days (PHDD) by promoter/VNTR methylation subgroup. In kind it is in vivo, human. As to conditions: for effect of naltrexone, relative to placebo, on PHDD: 16-week trial. From the text:
Overview. Detailed methods for the parent RCT, including a CONSORT diagram, are described in Anton et al, 2020 and Schacht et al, 2017. The Medical University of South Carolina Institutional Review Board approved all procedures, and all participants provided informed consent before participation. The study consisted of an initial assessment session, a baseline visit, and 9 follow-up visits over the course of a 16-week treatment period. Briefly, participants seeking AUD treatment were recruited from the community with media advertisements, assessed for inclusion/exclusion criteria, and genotyped for rs1799971. One of the aims of the parent RCT was to test the effect of rs1799971 genotype on naltrexone efficacy, so participants who carried the minor (G) allele were over-selected, such that these individuals ultimately comprised ˜50% of the 146 participants randomized to medication.
Participants. Participants were required to be ages 18-70; report heavy drinking (at least five/four standard drinks per day for men/women) on at least 50% of the days in the 90 days before assessment; and meet DSM-IV (Diagnostic and Statistical Manual of Mental Disorders, revised 4th edition) diagnostic criteria for Alcohol Dependence, as assessed by the Structured Clinical Interview for DSM-IV (First et al, 2002). Participants were also required to self-identify as Caucasian or Asian, secondary to low rs1799971 G-allele frequency among individuals of African descent; we previously reported that analysis of population allele frequencies for 50 SNPs included on the methylation assay used here indicated a high degree of correspondence between self-reported and SNP-identified ancestry. […] Exclusion criteria were: current psychotropic medication use other than antidepressants (for which a stable dose for at least one month was required); current DSM-IV Axis I diagnosis or suicidal/homicidal ideation; history of significant medical illness; liver enzyme (ALT or AST) levels>three times normal; and past-month naltrexone, disulfiram, or acamprosate use. Female participants could not be pregnant or nursing. The Table below lists demographic characteristics for the sample. Medication, randomization, and assessment. Participants were required to maintain abstinence for at least four days before medication randomization, and were then urn randomized (Stout et al, 1994) to receive naltrexone (25 mg for two days, then 50 mg thereafter) or placebo for 16 weeks. Randomization was stratified by rs1799971 genotype, with sex, smoking status (non-smoker vs. smoker, defined as ≥10 cigarettes per day), cocaine use, antidepressant use, and AUD family history balanced across medication groups. […] Participants and investigators were blind to genotype and medication assignment. After randomization, participants returned at weeks 1, 2, 3, 4, 6, 8, 10, 12, and 16 for medical management sessions, during which daily drinking since the last visit was assessed with the calendar-based Timeline Follow-back interview (Sobell and Sobell, 1992). Participants who dropped out after randomization were compensated to return at week 16 to provide missing drinking data. Forty participants ultimately dropped out, at similar rates across medication groups, but full drinking data were available on 89% of participants.
Methylation assay. Genomic DNA was quantitated using a Qubit Fluorometer (Thermo Fisher Scientific, Waltham, MA). An Infinium MethylationEPIC BeadChip (Illumina, San Diego, CA), which assays methylation at 866,895 cytosine residues, 99.7% of which are CpG sites, was used to generate a comprehensive genome-wide profile of DNA methylation. For each subject, 500 ng genomic DNA was bisulfate converted, denatured, and amplified, fragmented, resuspended, and hybridized to the BeadChips (eight samples per chip). […]

Where [3] appears, read: month 3, high SLC6A3 promoter and low OPRM1 promoter methylation.

SMILES strings stand for the structures.

As for `O=C1CC[C@@]2(O)[C@H]3Cc4ccc(O)c5c4[C@@]2(CCN3CC2CC2)[C@H]1O5` [naltrexone], the “overall effect of naltrexone on heavy drinking” value in assay [1] (across all AUD individuals (Maisel et al, 2013)) is on record as “small”. The “effect on heavy drinking” value in assay [1] (individuals with AUD (Jonas et al., 2014a)) is “reduces heavy drinking”. For the same molecule, the “effect size (Cohen's d) for PHDD, naltrexone relative to placebo” value in assay [2] (across all study months, lower COMT promoter and lower OPRM1 promoter methylation) is on record as 0.85; in assay [2] (across all study months, lower SLC6A3 VNTR and lower OPRM1 promoter methylation) it was 1.25; in assay [2] (month 2, lower SLC6A3 promoter and lower OPRM1 promoter methylation), 0.61; in assay [2] (setting [3]) it was 0.98; in assay [2] (month 3, lower SLC6A3 promoter and lower OPRM1 promoter methylation), 0.62. Moreover, the “mean difference between naltrexone and placebo in PHDD” value in assay [2] (across all study months, lower COMT promoter and lower OPRM1 promoter methylation (median split)) was found to be 19.7 % HDD; in assay [2] (across all study months, lower SLC6A3 VNTR and lower OPRM1 promoter methylation (median split)) it was 28.5 % HDD; in assay [2] (month 2, lower SLC6A3 promoter and lower OPRM1 promoter methylation (median split), naltrexone 50 mg), 16.2 % HDD; in assay [2] (setting [3]), 25.7 % HDD; in assay [2] (month 3, lower SLC6A3 promoter and lower OPRM1 promoter methylation (median split)) it was 16.5 % HDD. Moreover, in assay [2] (any time point, any other combination of SLC6A3 and OPRM1 promoter methylation (except high SLC6A3/low OPRM1)), the “simple effect of medication on PHDD” value was “not significant”. Further, in assay [2] (lower methylation of OPRM1 and SLC6A3 or COMT promoters, relative to placebo and to higher methylation), the heavy drinking days entry was “significantly fewer heavy drinking days”. In addition, the “effect of naltrexone, relative to placebo, on PHDD” value is “reduced PHDD more” in assay [2] (participants with lower COMT promoter and OPRM1 promoter methylation); “reduced PHDD more” in assay [2] (participants with lower SLC6A3 VNTR and OPRM1 promoter methylation); “reduced PHDD more” in assay [2] (participants with lower SLC6A3 promoter and OPRM1 promoter methylation). In addition, the “effect sizes for naltrexone, relative to placebo, on heavy drinking” value in assay [2] (subgroups in which it was most effective) was 0.53-1.04.
